{"source": "patent US12295937B2", "about": "“Psychoactive medicines and their use for treating psychiatric and neurological conditions and disorders” (Transcend Therapeutics, Inc., priority 2021, dated 2025)", "assay": "IMPACT-1 Part A open-label study in PTSD", "assay_type": "in vivo, human", "design": "Anxiety Sub-Scale of MADRS, score reduction / Participants with absence of Reduced Sleep (MADRS): concentration or dose not given beside the values", "method": "For each participant in Parts A and B, the study consists of: • Screening Period (Day −28 to Day −4): Informed consent, eligibility assessment, and enrolment of eligible participants. • Baseline/Preparatory Session (Day −3 to Day −1): Baseline assessments, confirmation of eligibility, and a preparatory psychoeducation session leading to enrolment confirmation. • Treatment Period (Day 1 to Day 24): Four weekly dose sessions, with associated remote sessions. The dose sessions last at least 8 hours, or until all effects (physical and psychological) have resolved (whichever is longer). Each dose session is followed by a safety phone call 1 day after dosing and efficacy assessments 2 days after dosing. Each dosing period is video recorded for quality and training purposes. The videos may be reviewed to ensure the Mentor is adhering to the Mentor training. • Follow-Up Period (Day 29 to Day 64): Follow-Up visits for safety and efficacy occur at 1, 2, 3 and 6 weeks post-final study drug administration. In addition, there are Mentor-Led Reflection Sessions 1, 2 and 3 weeks post-final study drug administration. Participants are contacted via telephone on Day 57 (±2 days) for Follow-Up. • Discontinuations: Participants who discontinue prematurely are asked to return for an extra visit to duplicate the 6-week end-of-study (EOS) visit.\nEach dose was given as an initial dose, followed by a second dose 90 minutes later. During the dosing session, participants were accompanied by a trained Mentor who provided non-directive support. After the 4-week treatment period, participants attended follow-up visits at 1, 2, 3, and 6 weeks following the last dose. Safety was assessed via standard measures including adverse events. PTSD symptoms were assessed via Clinician-Administered PTSD Scale for DSM-5 (CAPS-5), depressive symptoms were assessed via Montgomery-Åsberg Depression Rating Scale (MADRS). Anti-anxiety efficacy was evaluated using the Anxiety Sub-Scale of MADRS, namely, questions (Items 3, 4, 5, 6) that address four anxiety items (inner tension, reduced sleep, reduced appetite, concentration difficulties) Changes from baseline were analyzed using a paired t-test p-values.\nMethods: The IMPACT-1 study is a multi-center, two-part clinical trial. Part A has completed and was an open-label evaluation involving 14 participants with PTSD. Eligible participants are adults with severe PTSD (CAPS-5≥35) who had failed at least 1 prior treatment (pharmacotherapy and/or psychotherapy) for PTSD. […] Throughout each dosing session, participants were provided non-directive psychological support by a trained mental health practitioner. Following the 4-week treatment period, participants were followed for an additional 6 weeks to evaluate the durability of the therapeutic effect. PTSD symptom improvement was evaluated on the CAPS-5. Functioning was assessed via the 3 domains (school/work, family life, social life) of the Sheehan Disability Scale (SDS). Global improvement was measured by the CGI-I. Safety was assessed by monitoring adverse events, vital signs, and C-SSRS.\nFollowing the 4-week treatment period, participants were followed for an additional 6 weeks to evaluate the durability of the therapeutic effect. Sleep-related improvements were evaluated on the CAPS-5 (including distressing dreams [item B2; scores range 0 to 4] and sleep disturbances [item E6; scores range 0 to 4]), the Pittsburgh Sleep Quality Index (PSQI; total scores range 0 to 21) and subscales, and the reduced sleep item of the Montgomery-Åsberg Depression Rating Scale (MADRS; scores range 0 to 6)."}
{"molecule": "CNC(C)C(=O)c1ccc2c(c1)OCO2", "note": "(centres unmarked) [Methylone, 3,4-methylenedioxy-N-methylcathinone]", "values": [{"measurement": "CAPS-5 score decrease", "setting": "6 weeks after the last dose", "result": 36.2, "unit": "points"}, {"measurement": "MADRS score decrease", "setting": "6 weeks after the last dose", "result": 21.4, "unit": "points"}, {"measurement": "Anxiety Sub-Scale of MADRS, score reduction", "setting": "Day 3", "result": 20, "unit": "%"}, {"measurement": "CAPS-5 score decrease", "setting": "Day 3", "result": 8.4, "unit": "points"}, {"measurement": "MADRS score decrease", "setting": "Day 3", "result": 8.2, "unit": "points"}, {"measurement": "Anxiety Sub-Scale of MADRS, score reduction", "setting": "Day 10", "result": 43, "unit": "%"}, {"measurement": "CAPS-5 score decrease", "setting": "Day 10", "result": 23.3, "unit": "points"}, {"measurement": "MADRS score decrease", "setting": "Day 10", "result": 16.2, "unit": "points"}, {"measurement": "Participants achieving remission (CAPS-5)", "setting": "Day 10", "result": "~40", "unit": "%"}, {"measurement": "Participants much or very much improved (CGI-I)", "setting": "Day 10, two days after the 2nd dose", "result": "~70", "unit": "%"}, {"measurement": "Anxiety Sub-Scale of MADRS, score reduction", "setting": "Day 17", "result": 50, "unit": "%"}, {"measurement": "Anxiety Sub-Scale of MADRS, score reduction", "setting": "Day 24", "result": 57, "unit": "%"}, {"measurement": "Anxiety Sub-Scale of MADRS, score reduction", "setting": "Day 29", "result": 56, "unit": "%"}, {"measurement": "Anxiety Sub-Scale of MADRS, score reduction", "setting": "Day 36", "result": 66, "unit": "%"}, {"measurement": "Anxiety Sub-Scale of MADRS, score reduction", "setting": "Day 43", "result": 64, "unit": "%"}, {"measurement": "Anxiety Sub-Scale of MADRS, score reduction", "setting": "Day 64", "result": 66, "unit": "%"}, {"measurement": "SDS score, Family Life", "setting": "Day 64", "result": "3.1 (3.45)"}, {"measurement": "SDS score, Mean Overall", "setting": "Day 64", "result": "3.1 (3.12)"}, {"measurement": "SDS score, Social Life", "setting": "Day 64", "result": "3.2 (3.39)"}, {"measurement": "SDS score, Work/School", "setting": "Day 64", "result": "3.3 (3.78)"}, {"measurement": "TEAE: Bruxism", "setting": "N = 14", "result": 14.3, "unit": "%"}, {"measurement": "TEAE: Decreased appetite", "setting": "N = 14", "result": 28.6, "unit": "%"}, {"measurement": "TEAE: Dizziness", "setting": "N = 14", "result": 14.3, "unit": "%"}, {"measurement": "TEAE: Fatigue", "setting": "N = 14", "result": 21.4, "unit": "%"}, {"measurement": "TEAE: Headache", "setting": "N = 14", "result": 42.9, "unit": "%"}, {"measurement": "TEAE: Hyperhidrosis", "setting": "N = 14", "result": 14.3, "unit": "%"}, {"measurement": "TEAE: Influenza-like illness", "setting": "N = 14", "result": 14.3, "unit": "%"}, {"measurement": "TEAE: Insomnia", "setting": "N = 14", "result": 14.3, "unit": "%"}, {"measurement": "TEAE: Nasopharyngitis", "setting": "N = 14", "result": 14.3, "unit": "%"}, {"measurement": "TEAE: Non-cardiac chest pain", "setting": "N = 14", "result": 21.4, "unit": "%"}, {"measurement": "Drug-related serious adverse events", "setting": "Part A", "result": "No drug-related SAEs occurred"}, {"measurement": "TEAE: Any AE", "setting": "Safety Population N = 14", "result": 78.6, "unit": "%"}, {"measurement": "CAPS-5 mean change from baseline", "setting": "after the first dose", "result": "−8.4", "unit": "points"}, {"measurement": "SDS mean change from baseline", "setting": "after the first dose", "result": "−1.53"}, {"measurement": "Participants with absence of Distressing Dreams", "setting": "after treatment", "result": 77, "unit": "%"}, {"measurement": "Participants with absence of Reduced Sleep (MADRS)", "setting": "after treatment", "result": 62, "unit": "%"}, {"measurement": "Participants with absence of Sleep Disturbances", "setting": "after treatment", "result": 62, "unit": "%"}, {"measurement": "CAPS-5 Distressing Dreams (item B2) mean score", "setting": "after treatment, baseline 2.2", "result": 0.38}, {"measurement": "CAPS-5 Sleep Disturbances (item E6) mean score", "setting": "after treatment, baseline 3.3", "result": 0.92}, {"measurement": "MADRS Reduced Sleep mean score", "setting": "after treatment, baseline 4.3", "result": 1.08}, {"measurement": "PSQI total mean score", "setting": "end of study", "result": 9.4}, {"measurement": "Participants having mild or no impairment (SDS)", "setting": "end of study", "result": "> 50", "unit": "%"}, {"measurement": "PSQI total score improvement", "setting": "end of study (6 weeks after the last dose), baseline 13.5", "result": "−4.0", "unit": "points"}, {"measurement": "CAPS-5 mean change from baseline", "setting": "end of study visit (6 weeks after the last dose)", "result": "−36.2", "unit": "points"}, {"measurement": "Change in number of days lost", "setting": "end of the 4-week treatment period, baseline 2.6", "result": -2.0, "unit": "days"}, {"measurement": "Change in number of days underproductive", "setting": "end of the 4-week treatment period, baseline 4.7", "result": -3.3, "unit": "days"}, {"measurement": "Participants achieving remission (CAPS-5)", "setting": "end of the study", "result": 61.5, "unit": "%"}, {"measurement": "Participants much or very much improved (CGI-I)", "setting": "end of the study", "result": "all participants"}, {"measurement": "Patient-reported chronic pain after methylone", "setting": "one subject, knees, before 7-8 and 8-9 out of 10", "result": "2-3 out of 10"}, {"measurement": "SDS mean change from baseline", "setting": "through the 6-week follow-up period", "result": "−4.26"}]}
